# Results: a melting point compilation (Tetko et al.; mined from patent text by program, amines drawn as free bases though some values may be those of a salt)
row,melting point,SMILES
1,206 to 209 °C,O=C(O)Cc1c(C(=O)C2CCCCC2)[nH]c2cc(Cl)ccc12
2,69 to 71 °C,CCOC(=O)c1cc(OCC)c(OCC)cc1N
3,185 °C,CCOC(=O)C1C(=O)Nc2ccccc2SC1c1ccc(C)cc1 (stereo not drawn)
4,75 to 77 °C,COC(=O)C[C@H](O)CC(=O)CCc1c(-c2ccc(F)cc2)c(-c2ccccc2)c(C(=O)Nc2ccccc2)n1C(C)C
5,101 to 102 °C,COC(=O)Nc1cc(F)c(Br)cc1I
6,149 °C,COC(=O)C1(Sc2cc(N=c3sc(=O)n4n3CCCC4)c(F)cc2Cl)CC1
7,151 to 152 °C,Cc1nc(N2CCC(NCCC3CC3)C2=O)sc1C(=O)NCc1ccc(F)cc1 (stereo not drawn)
8,129 to 131 °C,CCOC(=O)C(O)C(Oc1ccccc1[N+](=O)[O-])c1ccccc1 (stereo not drawn)
9,104 °C,COC(=O)c1cc(CO)nn1-c1ncccc1Cl
10,100 to 112 °C,COCCN1CCc2cc(Nc3ncc(Cl)c(Nc4ccc(C(N)=O)cc4OC)n3)c(OC)cc2CC1
11,87 to 92 °C,CCCCCC(O)CCCC(Cc1ccc(C=CC(=O)O)cc1)C(C)=O (stereo not drawn)
12,124 to 128 °C,CC(=O)Oc1ccc2c(c1)Sc1cc(N(C)C)ccc1N2C(C)=O
13,88 to 89 °C,COc1cc(Nc2nccc(-c3ccc(N4CCN(CCN)CC4)nc3)n2)cc(OC)c1OC
14,130 to 131 °C,Cc1cc(N2CCN(Cc3ccccc3)C2=O)sc1C(=O)NCc1cccnc1
15,139 to 143 °C,CCOC(=O)C1(O)CSC(O)(C(=O)OCC)CS1 (stereo not drawn)
16,237 to 238 °C,CN(C)c1cccc(-c2ccc3c(C(N)=O)nn(-c4ccc(S(N)(=O)=O)cc4)c3c2)c1
17,190 to 193 °C,CCOC(=O)C(C#N)=CNc1csc(-c2ccccc2)c1
18,> 250 °C,C=C(C(=O)c1ccc(C(=O)O)cc1)c1cc(-c2cccs2)ccc1OC
19,117 to 118 °C,CCc1cccc2c3c([nH]c12)C(CC)(CC(=O)OC)OCC3O (stereo not drawn)
20,226 to 228 °C,COC(=O)[C@H]1C[C@H](NC(=O)Cc2ccccc2)c2c(Cl)cc(Cl)cc2N1 (relative stereo)
21,154 to 156 °C,COC(=O)C1=C(C(F)F)NC(C)=C(C(=O)OC2CCCC2)C1c1cccc([N+](=O)[O-])c1C (stereo not drawn)
22,166 to 167 °C,COCCOc1cc(N)c(S(C)(=O)=O)cc1[N+](=O)[O-]
23,> 250 °C,NC1=NC2(O)c3cc([N+](=O)[O-])ccc3CC2S1 (stereo not drawn)
24,57.5 to 66.3 °C,CCCCOC(=O)c1cccc(I)c1C(=O)NC(C)(C)CS(C)=O (stereo not drawn)
25,193 to 195 °C,CC(C)CC(=O)C(=O)NCC(=O)c1ccccc1
26,174 °C,NC(=O)Cc1ccc2c(c1)CCc1ccccc1C2=O
27,114 °C,COc1ccc(S(=O)(=O)C2(C(=O)O)CCN(Cc3ccc(OCCN4CCCCC4)cc3)CC2)cc1

# The next lines start with the molecule.
row,SMILES,melting point
1,CCc1cc(Nc2nc(Nc3cc(CC)n[nH]3)c3ccccc3n2)[nH]n1,248 to 252 °C
2,CCCCc1nc(Cl)c(CC#N)n1Cc1ccc([N+](=O)[O-])cc1,118 to 121 °C
3,COc1cn(-c2ccc(N3CCC3=O)cc2F)nc(-c2ccnn2-c2ccccc2)c1=O,189 to 194 °C
4,CC(C)(C)c1cc(NC(=O)Nc2ccc(Oc3ccncc3)cc2)[nH]n1,178 to 179 °C
5,CCCOCc1ccc(C#CC2(O)CN3CCC2CC3)cc1 (stereo not drawn),140 to 141 °C
6,C[Si](C)(C)C#Cc1ccc2c(c1)C(c1ccccc1F)=NCc1c(C(=O)OCC(F)(F)F)ncn1-2,220 to 221 °C
7,CNC(=O)c1cnn(C)c1C(=O)Nc1ccn2nc(-c3ccccc3)nc2c1,> 250 °C
8,c1ccc(-c2nn3c(c2-c2nc4ccccc4[nH]2)CCC3)nc1,172 to 175 °C
9,NC(=O)c1nccc(Cl)c1Cl,174 to 175 °C
10,O=C(O)c1[nH]c(-c2ccoc2)cc1-c1ccc(O)cc1,154 to 156 °C
11,Cc1c[nH]c2c(Sc3nc4cc(Cl)ccc4[nH]3)ccc(N)c12,229 to 230 °C
12,COc1nc(NC(=O)NS(=O)(=O)c2ccccc2Cl)nc2nccnc12,212 °C
13,COc1ccc(Cn2nc(-c3ccc(SC)cc3)c(-c3ccc(F)cc3)cc2=S)cc1,113 °C
14,CN1CCC(C(=O)Nc2ccc(CN(C)C3CCOCC3)cc2)=Cc2cc(-c3ccc(N4CCCCC4)cc3)ccc21,202 to 204 °C
15,Cn1ncc(/C=C/C(=O)Nc2ccc(CCc3nnco3)cc2)c1-c1ccc(F)cc1,177 to 178 °C
16,Nc1ncnc2sc(Cc3ccncc3)c(-c3ccc(NC(=O)Nc4cccc(C(F)(F)F)c4)cc3)c12,162 to 166 °C
17,Cc1nc(-c2ccccc2C(F)(F)F)c(CCC(=O)O)o1,118 to 119 °C
18,C=CC(C)C1CCC2C3CCC4=CC(O)CCC4(C)C3CCC12C (stereo not drawn),121 to 123 °C
19,CCCCC(Nc1ccncc1)c1ccccc1 (stereo not drawn),118 °C
20,CCOC(=O)c1ncc2[nH]c3ccc(C4CCCC(=O)C4)cc3c2c1C (stereo not drawn),182 to 189 °C
21,Cn1ncnc1COc1nn2c(-c3ccccc3F)nncc2c1-c1cccnc1,181 to 183 °C
22,Nc1cccc(Oc2ccc(C(=O)c3ccc(C#Cc4ccccc4)cc3)cc2)c1,137 to 139 °C
23,COC(=O)c1cc(-c2c[nH]nc2-c2ccc(F)cc2)ccn1,239 to 241 °C

row,SMILES,melting point
1,O=C1CC(c2ccccc2)Cc2[nH]ccc(=O)c21 (stereo not drawn),207 to 209 °C
2,Cc1noc2cc(OCCCNCC3CCc4ccc(O)cc4O3)ccc12 (stereo not drawn),169 to 170 °C
3,COc1ccc2c(=O)c(N)coc2c1,143 to 146 °C
4,O=C(NCCn1cncn1)c1sc2ccccc2c1Cl,151 to 152 °C
5,COc1cccc(CN2CCC(N3C(=O)Nc4ccccc4C3c3cccc(O)c3)CC2)c1 (stereo not drawn),> 250 °C
6,NCCc1ccc(OCC2CCCO2)c(S(N)(=O)=O)c1 (stereo not drawn),135 to 140 °C
7,Cn1c([N+](=O)[O-])cnc1COc1ccc(C#N)cc1,130 °C
8,CCCCc1nccn1Cc1ccc2oc(-c3ccccc3C(=O)O)c(Br)c2c1,138 to 145 °C
9,Nc1ccc(N2CCOC2=O)c(Cl)c1,151 to 153 °C
10,COc1ccc(Cn2cc(C(=O)C(=O)NC3=CC(=O)OC3)c3ccccc32)cc1,265 to 267 °C
11,NS(=O)(=O)CCCOc1ccc2ncnn2n1,145 to 147 °C
12,CC(C)Cn1c(=O)n(C)c(=O)c2c(-c3cccc(-c4nnn[nH]4)c3)n(Cc3cccc4ccccc34)nc21,251 to 254 °C
13,O=C(Nc1ccc(N2CCOCC2=O)cc1)[C@H]1C=CCN1C(=O)Nc1ccc(Cl)cc1,245 °C
14,CC(C)Oc1ccnc2[nH]cc(-c3ccnc(N)n3)c12,> 210 °C
15,Nc1ccn2nc(-c3cccc(F)c3)nc2c1,200 to 203 °C
16,CCCCCCC1C(=O)NC2(C(O)C3C=CCCC3)C(=O)OC12C (stereo not drawn),157 °C
17,N=C1SCCN1c1ccc([N+](=O)[O-])cc1,166 °C
18,Cc1noc(NS(=O)(=O)c2ccccc2C#N)c1Br,152 to 155 °C
19,COc1ccc(CC2C(=O)N(Cc3ccccc3)c3ccccc3NC2C)cc1 (stereo not drawn),136 to 137 °C
20,Cc1cn(C2CC(O)C(C(O)I)O2)c(=O)[nH]c1=O (stereo not drawn),172 to 175 °C
21,O=C1CC(=O)C2CCC1C2,129 to 130 °C
22,O=Cc1ccc(O)cn1,134 to 135 °C
23,Cc1ccccc1-n1c(CCl)nc2ccccc2c1=O,205 to 206 °C
